Measurements from PubChem BioAssay AID2060900 (Molecular Pharmacology Branch, DTP, NCI, 2025).

Test system: 521955-158-R2-J5-PDC complex spheroids, viability
Assay: Anticancer human tumor 521955-158-R2-J5-PDC patient-derived pancreatic carcinoma cell line growth inhibition [RAS]
Conditions: for IC50: curve of first compound; for viability, T/C: stronger effect = lower value
How it was run: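 Multi-cell-type spheroids: tumor cells plus HUVEC endothelial cells and mesenchymal stem cells. RAS-pathway inhibitors were combined with targeted agents, each dosed in half-log steps down from clinical Cmax, or from 10 microM when Cmax was unknown.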

[1] = second compound 0.000949 µM, first compound 0.0316 µM
[2] = second compound 0.000949 µM, first compound 0.1 µM
[3] = second compound 0.000949 µM, first compound 0.316 µM
[4] = second compound 0.000949 µM, first compound 1 µM
[5] = second compound 0.000949 µM, first compound 3.16 µM
[6] = second compound 0.000949 µM, first compound 10 µM
[7] = second compound 0.003 µM, first compound 0.0316 µM
[8] = second compound 0.003 µM, first compound 0.1 µM
[9] = second compound 0.003 µM, first compound 0.316 µM
[10] = second compound 0.003 µM, first compound 1 µM
[11] = second compound 0.003 µM, first compound 3.16 µM
[12] = second compound 0.003 µM, first compound 10 µM
[13] = second compound 0.00949 µM, first compound 0.0316 µM
[14] = second compound 0.00949 µM, first compound 0.1 µM
[15] = second compound 0.00949 µM, first compound 0.316 µM
[16] = second compound 0.00949 µM, first compound 1 µM
[17] = second compound 0.00949 µM, first compound 3.16 µM
[18] = second compound 0.00949 µM, first compound 10 µM
[19] = second compound 0.03 µM, first compound 0.0316 µM
[20] = second compound 0.03 µM, first compound 0.1 µM
[21] = second compound 0.03 µM, first compound 0.316 µM
[22] = second compound 0.03 µM, first compound 1 µM
[23] = second compound 0.03 µM, first compound 3.16 µM
[24] = second compound 0.03 µM, first compound 10 µM
[25] = second compound 0.0949 µM, first compound 0.0316 µM
[26] = second compound 0.0949 µM, first compound 0.1 µM
[27] = second compound 0.0949 µM, first compound 0.316 µM
[28] = second compound 0.0949 µM, first compound 1 µM
[29] = second compound 0.0949 µM, first compound 3.16 µM
[30] = second compound 0.0949 µM, first compound 10 µM
[31] = second compound 0.3 µM, first compound 0.0316 µM
[32] = second compound 0.3 µM, first compound 0.1 µM
[33] = second compound 0.3 µM, first compound 0.316 µM
[34] = second compound 0.3 µM, first compound 1 µM
[35] = second compound 0.3 µM, first compound 3.16 µM
[36] = second compound 0.3 µM, first compound 10 µM
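Also: compound exposure lasted seven days before the viability read.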
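For viability, T/C in this document: spheroids also contain HUVEC endothelial cells and mesenchymal stem cells as stroma.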

Question: What does the source list for CCC(CC)c1cc(NC2CCC(N)C2)n2nccc2n1 (stereo unspecified) + CCn1c(-c2cc(N3CCN(C)CC3)cnc2C(C)OC)c2c3cc(ccc31)-c1csc(n1)CC(NC(=O)C1CC1C)C(=O)N1CCCC(N1)C(=O)OCC(C)(C)C2?
Answer: IC50 (second compound 0.000949 µM): < 31.6 nM; IC50 (second compound 0.003 µM): 31.6 nM; IC50 (second compound 0.00949 µM): < 31.6 nM; IC50 (second compound 0.03 µM): < 31.6 nM; IC50 (second compound 0.0949 µM): < 31.6 nM; IC50 (second compound 0.3 µM): < 31.6 nM; viability, T/C [1]: 39%; viability, T/C [2]: 50.8%; viability, T/C [3]: 56%; viability, T/C [4]: 48.2%; viability, T/C [5]: 11.8%; viability, T/C [6]: 10.7%; viability, T/C [7]: 47.5%; viability, T/C [8]: 44.3%; viability, T/C [9]: 50.6%; viability, T/C [10]: 43%; viability, T/C [11]: 6.49%; viability, T/C [12]: 10.2%; viability, T/C [13]: 34.5%; viability, T/C [14]: 32.3%; viability, T/C [15]: 43.7%; viability, T/C [16]: 44.4%; viability, T/C [17]: 9.61%; viability, T/C [18]: 8.45%; viability, T/C [19]: 23.9%; viability, T/C [20]: 23.9%; viability, T/C [21]: 24.4%; viability, T/C [22]: 21.2%; viability, T/C [23]: 7.51%; viability, T/C [24]: 7.75%; viability, T/C [25]: 12.3%; viability, T/C [26]: 11.3%; viability, T/C [27]: 17.4%; viability, T/C [28]: 12.1%; viability, T/C [29]: 9.07%; viability, T/C [30]: 8.98%; viability, T/C [31]: 10.9%; viability, T/C [32]: 10.8%; viability, T/C [33]: 11.7%; viability, T/C [34]: 12.6%; viability, T/C [35]: 10.9%; viability, T/C [36]: 8.49%

Question: Which results are given for O=C(c1ccc(F)c(F)c1Nc1ccc(I)cc1F)N1CC(O)([C@@H]2CCCCN2)C1 + C=CC(=O)N1CCN(c2nc(OCC3CCCN3C)nc3c(F)c(-c4nc(N)cc(C)c4C(F)(F)F)c(Cl)cc23)C(C)C1?
Answer: IC50 (second compound 0.00316 µM): 23 nM; IC50 (second compound 0.01 µM): 14.2 nM; IC50 (second compound 0.0316 µM): 37.2 nM; IC50 (second compound 0.1 µM): 40.1 nM; IC50 (second compound 0.316 µM): 72 nM; IC50 (second compound 1 µM): 26.9 nM; viability, T/C (second compound 0.00316 µM, first compound 0.00316 µM): 93%; viability, T/C (second compound 0.00316 µM, first compound 0.01 µM): 58%; viability, T/C (second compound 0.00316 µM, first compound 0.0316 µM): 48%; viability, T/C (second compound 0.00316 µM, first compound 0.1 µM): 36.6%; viability, T/C (second compound 0.00316 µM, first compound 0.316 µM): 29.8%; viability, T/C (second compound 0.00316 µM, first compound 1 µM): 23.3%; viability, T/C (second compound 0.01 µM, first compound 0.00316 µM): 84.2%; viability, T/C (second compound 0.01 µM, first compound 0.01 µM): 45.3%; viability, T/C (second compound 0.01 µM, first compound 0.0316 µM): 45.7%; viability, T/C (second compound 0.01 µM, first compound 0.1 µM): 38.2%; viability, T/C (second compound 0.01 µM, first compound 0.316 µM): 31.4%; viability, T/C (second compound 0.01 µM, first compound 1 µM): 19.6%; viability, T/C (second compound 0.0316 µM, first compound 0.00316 µM): 65.2%; viability, T/C (second compound 0.0316 µM, first compound 0.01 µM): 62.1%; viability, T/C (second compound 0.0316 µM, first compound 0.0316 µM): 44.4%; viability, T/C (second compound 0.0316 µM, first compound 0.1 µM): 47.2%; viability, T/C (second compound 0.0316 µM, first compound 0.316 µM): 33.2%; viability, T/C (second compound 0.0316 µM, first compound 1 µM): 21.5%; viability, T/C (second compound 0.1 µM, first compound 0.00316 µM): 65%; viability, T/C (second compound 0.1 µM, first compound 0.01 µM): 61.3%; viability, T/C (second compound 0.1 µM, first compound 0.0316 µM): 44.8%; viability, T/C (second compound 0.1 µM, first compound 0.1 µM): 50.8%; viability, T/C (second compound 0.1 µM, first compound 0.316 µM): 31.2%; viability, T/C (second compound 0.1 µM, first compound 1 µM): 24.1%; viability, T/C (second compound 0.316 µM, first compound 0.00316 µM): 97%; viability, T/C (second compound 0.316 µM, first compound 0.01 µM): 66.4%; viability, T/C (second compound 0.316 µM, first compound 0.0316 µM): 62.6%; viability, T/C (second compound 0.316 µM, first compound 0.1 µM): 48.1%; viability, T/C (second compound 0.316 µM, first compound 0.316 µM): 33.8%; viability, T/C (second compound 0.316 µM, first compound 1 µM): 20.3%; viability, T/C (second compound 1 µM, first compound 0.00316 µM): 80.2%; viability, T/C (second compound 1 µM, first compound 0.01 µM): 65.4%; viability, T/C (second compound 1 µM, first compound 0.0316 µM): 42.6%; viability, T/C (second compound 1 µM, first compound 0.1 µM): 39.3%; viability, T/C (second compound 1 µM, first compound 0.316 µM): 32.5%; viability, T/C (second compound 1 µM, first compound 1 µM): 22.6%

Question: How did the IC50 (second compound 0.000949 µM) turn out when NC1c2ccccc2OC12CCN(c1cnc3c(N4CCCc5ncccc54)n[nH]c3n1)CC2 (stereo unspecified) + CCn1c(-c2cc(N3CCN(C)CC3)cnc2C(C)OC)c2c3cc(ccc31)-c1csc(n1)CC(NC(=O)C1CC1C)C(=O)N1CCCC(N1)C(=O)OCC(C)(C)C2 was run?
Answer: Its IC50 is under 31.6 nM.

Question: And the IC50 (second compound 0.003 µM)?
Answer: The IC50 was under 31.6 nM.

Question: And the IC50 (second compound 0.00949 µM)?
Answer: Its IC50 is under 31.6 nM.

Question: And the IC50 (second compound 0.03 µM)?
Answer: The IC50 was under 31.6 nM.

Question: What about the IC50 (second compound 0.0949 µM) of the same molecule?
Answer: Its IC50 is under 31.6 nM.

Question: And the IC50 (second compound 0.3 µM)?
Answer: Its IC50 is under 31.6 nM.

Question: What about the viability, T/C [1] of the same molecule?
Answer: The viability, T/C was 36.8%.

Question: And the viability, T/C [2]?
Answer: Its viability, T/C is 33.9%.

Question: And the viability, T/C [3]?
Answer: The viability, T/C was 36.1%.

Question: And the viability, T/C [4]?
Answer: The viability, T/C was 20.8%.

Question: And the viability, T/C [5]?
Answer: Its viability, T/C is 18.5%.

Question: And the viability, T/C [6]?
Answer: The viability, T/C was 13.4%.

Question: What about the viability, T/C [7] of the same molecule?
Answer: The viability, T/C was 35.4%.

Question: And the viability, T/C [8]?
Answer: The viability, T/C was 28.6%.

Question: And the viability, T/C [9]?
Answer: The viability, T/C was 21.4%.

Question: What about the viability, T/C [10] of the same molecule?
Answer: The viability, T/C was 19.2%.

Question: What about the viability, T/C [11] of the same molecule?
Answer: The viability, T/C was 13.3%.

Question: What about the viability, T/C [12] of the same molecule?
Answer: The viability, T/C was 5.75%.

Question: And the viability, T/C [13]?
Answer: The viability, T/C was 24.2%.

Question: And the viability, T/C [14]?
Answer: Its viability, T/C is 16%.

Question: What about the viability, T/C [15] of the same molecule?
Answer: Its viability, T/C is 14.4%.

Question: What about the viability, T/C [16] of the same molecule?
Answer: The viability, T/C was 11.2%.

Question: And the viability, T/C [17]?
Answer: The viability, T/C was 6.08%.

Question: What about the viability, T/C [18] of the same molecule?
Answer: Its viability, T/C is 3.95%.

Question: What about the viability, T/C [19] of the same molecule?
Answer: The viability, T/C was 10.4%.

Question: And the viability, T/C [20]?
Answer: Its viability, T/C is 8.87%.

Question: And the viability, T/C [21]?
Answer: The viability, T/C was 10.9%.

Question: What about the viability, T/C [22] of the same molecule?
Answer: The viability, T/C was 8.91%.

Question: And the viability, T/C [23]?
Answer: The viability, T/C was 7.26%.

Question: And the viability, T/C [24]?
Answer: Its viability, T/C is 4.07%.

Question: And the viability, T/C [25]?
Answer: The viability, T/C was 11%.

Question: What about the viability, T/C [26] of the same molecule?
Answer: The viability, T/C was 9.54%.

Question: What about the viability, T/C [27] of the same molecule?
Answer: The viability, T/C was 11.1%.

Question: And the viability, T/C [28]?
Answer: The viability, T/C was 5.55%.

Question: What about the viability, T/C [29] of the same molecule?
Answer: The viability, T/C was 8%.

Question: What about the viability, T/C [30] of the same molecule?
Answer: The viability, T/C was 3.91%.

Question: What about the viability, T/C [31] of the same molecule?
Answer: The viability, T/C was 10.1%.

Question: What about the viability, T/C [32] of the same molecule?
Answer: The viability, T/C was 7.36%.

Question: And the viability, T/C [33]?
Answer: The viability, T/C was 9.18%.

Question: What about the viability, T/C [34] of the same molecule?
Answer: The viability, T/C was 8.17%.

Question: What about the viability, T/C [35] of the same molecule?
Answer: Its viability, T/C is 9.16%.

Question: What about the viability, T/C [36] of the same molecule?
Answer: The viability, T/C was 3.2%.
